Where a SMILES comes first, the peptide text is derived from it. [ ]: non-standard residue; d: D form. The star is where a group is joined. ξ: configuration not given here. FITC = O=C1OC2(c3ccc(O)cc3Oc3cc(O)ccc32)c2ccc(NC(=S)*)cc21; Phe(4-NO2) = N[C@@H](Cc1ccc([N+](=O)[O-])cc1)C(=O)O; ξAla(4-thiazolyl) = NC(Cc1cscn1)C(=O)O; pS = N[C@@H](COP(=O)(O)O)C(=O)O; Nva = CCC[C@H](N)C(=O)O; AEA = NCCOCC(=O)O
Molecular target: T1, 14-3-3γ (Homo sapiens, UniProt P61981)
T1 construct: made in house; host or cells: E. coli NiCo21 (DE3)
T1 sequence (P61981 1-247): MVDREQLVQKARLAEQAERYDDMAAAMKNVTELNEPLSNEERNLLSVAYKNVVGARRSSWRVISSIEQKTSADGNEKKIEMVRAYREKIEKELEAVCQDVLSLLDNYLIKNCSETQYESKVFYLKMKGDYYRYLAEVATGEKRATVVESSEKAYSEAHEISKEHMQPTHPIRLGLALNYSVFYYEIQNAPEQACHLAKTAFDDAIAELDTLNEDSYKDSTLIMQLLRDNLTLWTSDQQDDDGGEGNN
Assay: Fluorescence anisotropy (FA) binary binding study: 14-3-3 titrated to fluorescein-labelled peptide
Details: for Fold change to previous / ΔG / ΔΔG (to previous): Table S3
Description: 14-3-3γ protein expression (FP/ITC experiments)
(§1) A pPROEX HTb expression vector encoding the human 14-3-3 protein gamma (14-3-3γ) with an N-terminal his6-tag was transformed by heat shock into NiCo21 (DE3) competent cells. Single colonies were cultured in 50 mL LB medium (100 µg/mL ampicillin). After overnight incubation at 37 °C, cultures were transferred to 2 L TB media (100 µg/mL ampicillin, 1 mM MgCl2) and incubated at 37 °C until an OD600 nm of 0.8-1.2 was reached. Protein expression was then induced with 0.4 mM isopropyl-β-d-thiogalactoside (IPTG), and cultures were incubated overnight at 18 °C. Cells were harvested by centrifugation (8600 rpm, 20 minutes, 4 °C) and resuspended in lysis buffer (50 mM Hepes, pH 8.0, 300 mM NaCl, 12.5 mM imidazole, 5 mM MgCl2, 2 mM βME) containing cOmplete™ EDTA-free Protease Inhibitor Cocktail tablets (1 tablet/100 ml lysate) and benzonase (1 µl/100 ml). After lysis using a C3 Emulsiflex-C3 homogenizer (Avestin), the cell lysate was cleared by centrifugation (20000 rpm, 30 minutes, 4 °C) and purified using Ni2+-affinity chromatography (Ni-NTA superflow cartridges, Qiagen).
Typically two 5 mL columns (flow 5 mL/min) were used for a 2 L culture in which the lysate was loaded on the column washed with 10 CV wash buffer (50 mM Hepes, pH 8.0, 300 mM NaCl, 25 mM imidazole, 2 mM βME) and eluted in several fractions (2-4 CV) of elution buffer (50 mM Hepes, pH 8.0, 300 mM NaCl, 250 mM imidazole, 2 mM βME). Fractions containing the 14-3-3 protein were combined and dialyzed into 25 mM HEPES pH 8.0, 100 mM NaCl, 10 mM MgCl2, 500 µM TCEP. Finally, the protein was concentrated to ∼60 mg/mL, analyzed Q-Tof LC/MS, and aliquots were flash-frozen for storage at […]
as §1, with “sigma truncated after T231 (14-3-3σΔc) and” for “gamma (14-3-3γ)”, “tablet/ 100” for “tablet/100”, “µl/ 100” for “µl/100”, “ml).” for “ml). After lysis using a C3 Emulsiflex-C3 homogenizer (Avestin), the cell lysate was cleared by centrifugation (20000 rpm, 30 minutes, 4 °C) and purified using Ni2+-affinity chromatography (Ni-NTA superflow cartridges, Qiagen).”
After lysis using a C3 Emulsiflex-C3 homogenizer (Avestin), the cell lysate was cleared by centrifugation (20000 rpm, 30 minutes, 4 °C) and purified using Ni2+-affinity chromatography (Ni-NTA superflow cartridges, Qiagen). Typically two 5 mL columns were used for a 2 L culture in which the lysate was loaded on the column washed with 10 CV wash buffer (50 mM Hepes, pH 8.0, 300 mM NaCl, 25 mM imidazole, 2 mM βME) and eluted with several fractions (2-4 CV) of elution buffer (50 mM Hepes, pH 8.0, 300 mM NaCl, 250 mM imidazole, 2 mM βME). Fractions containing the 14-3-3 protein were combined and dialyzed into 25 mM HEPES pH 8.0, 200 mM NaCl, 10 mM MgCl2, 2 mM βME. In addition, 1 mg TEV was added for each 100 mg purified protein to remove the purification tag. The cleaved sample was then again loaded on a 10 mL Ni-NTA column to separate the cleaved product from the expression tag and residual uncleaved protein. The flowthrough was loaded on a Superdex 75 pg 16/60 size exclusion column (GE Life Sciences) using 25 mM HEPES, 100 mM NaCl, 10 mM MgCl2, 500 μM TCEP (adjusted to pH=8.0) as running buffer. Fractions containing the 14-3-3 protein were pooled and concentrated to ∼60 mg/mL, analyzed Q-Tof LC/MS, and aliquots were flash-frozen for storage at −80 […]
The peptides 1 and 2a-d were synthesized on 50 µmol scale on a Rink amide MBHA resin […]

[1] = FA KD of peptide divided by KD of previous (one amino acid longer) peptide, mean of n = 3
[2] = KD / KD of previous peptide, replicate 1
[3] = KD / KD of previous peptide, replicate 2
[4] = KD / KD of previous peptide, replicate 3
[5] = calculated from FA KD, mean of n = 3
[6] = ΔG minus ΔG of previous peptide, FA, replicate 1
[7] = ΔG minus ΔG of previous peptide, FA, replicate 2
[8] = ΔG minus ΔG of previous peptide, FA, replicate 3
[9] = ΔG of peptide minus ΔG of previous (one amino acid longer) peptide, FA, mean of n = 3

CCC[C@H](NC(=O)[C@@H](CCCCN)NC(=O)COCCNC(=S)Nc1ccc2c(c1)C(=O)OC21c2ccc(O)cc2Oc2cc(O)ccc21)C(=O)N[C@@H](Cc1ccc([N+](=O)[O-])cc1)C(=O)NC(Cc1cscn1)C(=O)N[C@@H](COP(=O)(O)O)C(=O)N[C@@H](Cc1ccc([N+](=O)[O-])cc1)C(N)=O (stereo partly shown) [2h] ({FITC-AEA}-[dK][Nva][Phe(4-NO2)][ξAla(4-thiazolyl)][pS][Phe(4-NO2)]-NH2)
individual ΔΔG of removed residue (FA, ΔG relative to the previously truncated peptide): 0.6 kcal/mol
Fold change to previous [1]: 2,92
Fold change to previous [2]: 2,91
Fold change to previous [3]: 2,67
Fold change to previous [4]: 3,19
ΔG [5]: -7,04 kcal/mol
ΔG (from FA KD, replicate 1): -7,08 kcal/mol
ΔG (from FA KD, replicate 2): -7,00 kcal/mol
ΔG (from FA KD, replicate 3): -7,04 kcal/mol
ΔΔG (to previous) [6]: 0,63 kcal/mol
ΔΔG (to previous) [7]: 0,58 kcal/mol
ΔΔG (to previous) [8]: 0,69 kcal/mol
ΔΔG (to previous) [9]: 0,63 kcal/mol

CCC[C@H](NC(=O)[C@@H](CCCCN)NC(=O)COCCNC(=S)Nc1ccc2c(c1)C(=O)OC21c2ccc(O)cc2Oc2cc(O)ccc21)C(=O)N[C@@H](Cc1ccc([N+](=O)[O-])cc1)C(=O)NC(Cc1cscn1)C(=O)N[C@@H](COP(=O)(O)O)C(N)=O (stereo partly shown) [2i] ({FITC-AEA}-[dK][Nva][Phe(4-NO2)][ξAla(4-thiazolyl)][pS]-NH2)
fold change in binding affinity on truncation (FA KD relative to the previous (one amino acid longer) peptide): four-fold
cumulative ΔΔG of truncating the entire N- or C-terminus (FA, relative to peptide 1 (2d: entire N-terminus; 2i: entire C-terminus)): 4.3 kcal/mol
ΔΔG C-term (cumulative, whole C-terminus removed) (Table S3, C-term = 2i relative to 1, FA, mean of n = 3): 4,31 kcal/mol
ΔΔG C-term (cumulative) (Table S3, C-term = 2i relative to 1, FA, replicate 1): 4,39 kcal/mol
ΔΔG C-term (cumulative) (Table S3, C-term = 2i relative to 1, FA, replicate 2): 4,30 kcal/mol
ΔΔG C-term (cumulative) (Table S3, C-term = 2i relative to 1, FA, replicate 3): 4,23 kcal/mol
Fold change to previous [1]: 4,04
Fold change to previous [2]: 4,23
Fold change to previous [3]: 3,56
Fold change to previous [4]: 4,33
ΔG [5]: -6,22 kcal/mol
ΔG (from FA KD, replicate 1): -6,22 kcal/mol
ΔG (from FA KD, replicate 2): -6,25 kcal/mol
ΔG (from FA KD, replicate 3): -6,18 kcal/mol
ΔΔG (to previous) [6]: 0,85 kcal/mol
ΔΔG (to previous) [7]: 0,75 kcal/mol
ΔΔG (to previous) [8]: 0,87 kcal/mol
ΔΔG (to previous) [9]: 0,82 kcal/mol

Source: publication PMC9667936, “Functional mapping of the 14-3-3 hub protein as a guide to design 14-3-3 molecular glues” (Chemical Science, 2022)
